Reference: patent publication US10662218B2, “Analogs of celastrol” (ERX Pharmaceuticals, Inc., priority 2015, dated 2020)
≈ marks a conversion by molar mass, not a printed value. Where “and” joins values, the source holds several entries; their conditions need not be identical. Equal values may be shown once. Read-outs that look alike come from different tables or passages of the source.

Key:
[1] = Compound solubility in PBS (pH 7.4), LC-MS/MS; settings: PBS (pH 7.4), pH 7.4, aqueous buffer, kinetic from dmso stock
Description: • Test concentration: 100 μM (1% of DMSO) • Test systems: PBS (pH 7.4) • Incubation condition: shaken (1000 rpm) for 1 h at room temperature • Sample size: Duplicates (n=2) • Bioanalytical method: LC-MS/MS

[2] = test system: C57BL/6 Diet Induced Obese (DIO) mice; experiment: Oral (P.O.) administration study in DIO mice: in vivo activity, body weights; design: species or system mouse; settings: 2 mg/kg; for Individual Body Weight: individual male animals; for Body weight, Mean / change in vivo at 2 mg/kg: male; for change in vivo at 2 mg/kg: Mus musculus, po, read-out: Body weight, %-Diff
Procedure, shortened: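 Male C57BL/6 DIO mice (21-22 weeks, 29.8-40.1 g) were gavage-acclimated with vehicle, then dosed orally once daily for 10 days at 2 mL/kg. Body weight was recorded daily before dosing. Cumulative change and AUC were analysed by one-way ANOVA with Dunnett's test.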

[3] = test system: C57BL/6 Diet Induced Obese (DIO) mice; experiment: Oral (P.O.) administration study in DIO mice: animal fate (mortality) and clinical observations; settings: mouse, in vivo, 2 mg/kg
Description: Male C57BL/6 DIO mice were assigned to 12 groups, and doses of 2 mg/kg Celastrol (ERX1000-4), ERX1006, ERX1007, ERX1037, ERX1060, ERX1077, ERX1107, ERX1149, ERX1168, ERX1177, and Pristimerin were administered to Groups 2 through 12, respectively. Animals were dosed via oral gavage once daily for 10 days at a volume of 2 mL/kg. The vehicle control article was 1% methyl cellulose (400 cps) in citric acid and phosphate buffer.
Parameters assessed included mortality, clinical observations, body weights and food consumption and blood glucose evaluations.
All animals were anesthetized via carbon dioxide, sacrificed, and discarded without further evaluation on Day 11.

[4] = Solubility (μM) Mean, Table 6-B, test concentration 100 μM (1% of DMSO), shaken (1000 rpm) 1 h at room temperature, n = 2
[5] = Phase Day PRED 11 (pre-dose baseline)
[6] = Phase Day PRED 12 (pre-dose baseline)
[7] = Phase Day PRED 13 (pre-dose baseline)
[8] = Phase Day PRED 14 (pre-dose baseline)
[9] = 24 h, Day 1, DSNG phase, difference of group mean
[10] = 48 h, Day 2, DSNG phase, difference of group mean
[11] = 72 h, Day 3, DSNG phase, difference of group mean
[12] = 96 h, Day 4, DSNG phase, difference of group mean
[13] = 120 h, Day 5, DSNG phase, difference of group mean
[14] = 144 h, Day 6, DSNG phase, difference of group mean
[15] = 168 h, DIO mice, phase DSNG, Day 7, difference of group mean from vehicle group 1
[16] = 192 h, DIO mice, phase DSNG, Day 8, difference of group mean from vehicle group 1
[17] = 216 h, DIO mice, phase DSNG, Day 9, difference of group mean from vehicle group 1
[18] = 240 h, DIO mice, phase DSNG, Day 10, difference of group mean from vehicle group 1
[19] = 264 h, DIO mice, phase DSNG, Day 11, difference of group mean from vehicle group 1

Compound	solubility at 1 h [1, 4]	solubility at 1 h ([1]; Solubility (μM), Table 6-D)	Body weight, Mean ([2]; DIO mice, phase DSNG, Day 7)	Body weight, Mean ([2]; DIO mice, phase DSNG, Day 8)	Body weight, Mean ([2]; DIO mice, phase DSNG, Day 9)	Body weight, Mean ([2]; DIO mice, phase DSNG, Day 10)	Body weight, Mean ([2]; DIO mice, phase DSNG, Day 11)	Body weight, Mean ([2]; Day 1, DSNG phase, N=5)	Body weight, Mean ([2]; Day 2, DSNG phase, N=5)	Body weight, Mean ([2]; Day 3, DSNG phase, N=5)	Body weight, Mean ([2]; Day 4, DSNG phase, N=5)	Body weight, Mean ([2]; Day 5, DSNG phase, N=5)	Body weight, Mean ([2]; Day 6, DSNG phase, N=5)	change in vivo at 2 mg/kg [2, 9]	change in vivo at 2 mg/kg [2, 10]	change in vivo at 2 mg/kg [2, 11]	change in vivo at 2 mg/kg [2, 12]	change in vivo at 2 mg/kg [2, 13]	change in vivo at 2 mg/kg [2, 14]	change in vivo at 2 mg/kg [2, 15]	further results
CC1=C(O)C(=O)C=C2C1=CC=C1[C@@]2(C)CC[C@@]2(C)[C@@H]3C[C@](C)(N)CC[C@]3(C)CC[C@]12C [ERX1077]	16.7 µM (≈ 7.04 µg/mL)	16.7 µM (≈ 7.04 µg/mL)	33.3 g	33.7 g	33.5 g	33.8 g	33.9 g	34.4 g	34.1 g	34.0 g	33.7 g	33.7 g	34.0 g	0%	-1%	0%	1%	0%	1%	-1%	Individual Body Weight ([2]; Phase Day DSNG 1): 31.5 g and 32.8 g and 34.5 g and 38.3 g and 34.9 g; Individual Body Weight ([2]; Phase Day DSNG 2): 31.2 g and 32.5 g and 34.1 g and 38.4 g and 34.4 g; Individual Body Weight [2, 5]: 32.6 g and 34.8 g and 36.1 g and 40.2 g and 38.0 g; Individual Body Weight [2, 6]: 33.2 g and 34.0 g and 35.8 g and 40.4 g and 37.0 g; Individual Body Weight [2, 7]: 31.6 g and 33.1 g and 35.6 g and 39.7 g and 36.9 g; Individual Body Weight [2, 8]: 32.7 g and 33.6 g and 35.7 g and 40.6 g and 36.6 g; change in vivo at 2 mg/kg [2, 16]: 0%; change in vivo at 2 mg/kg [2, 17]: 1%; change in vivo at 2 mg/kg [2, 18]: 1%; change in vivo at 2 mg/kg [2, 19]: -1%; Individual Animal Fate: Fate Status [3]: Scheduled Sacrifice
CCOC1=C(C)C2=CC=C3[C@@](C)(CC[C@@]4(C)[C@@H]5C[C@](C)(C(N)=O)CC[C@]5(C)CC[C@]34C)C2=CC1=O [ERX1107]	11.4 µM (≈ 5.45 µg/mL)	11.4 µM (≈ 5.45 µg/mL)	32.4 g	32.3 g	32.2 g	32.4 g	32.7 g	34.2 g	34.3 g	33.4 g	33.2 g	33.1 g	32.7 g	0%	-1%	-1%	-1%	-2%	-2%	-3%	Individual Body Weight ([2]; Phase Day DSNG 1): 33.6 g and 35.8 g and 36.3 g and 31.2 g and 34.1 g; Individual Body Weight ([2]; Phase Day DSNG 2): 33.5 g and 36.5 g (2×) and 31.0 g and 33.9 g; Individual Body Weight [2, 5]: 34.1 g (2×) and 36.6 g and 37.7 g and 36.2 g; Individual Body Weight [2, 6]: 35.1 g and 37.5 g and 37.9 g and 33.2 g and 34.6 g; Individual Body Weight [2, 7]: 34.9 g and 38.0 g and 37.6 g and 31.9 g and 33.8 g; Individual Body Weight [2, 8]: 35.1 g and 37.5 g and 37.7 g and 32.5 g and 34.6 g; change in vivo at 2 mg/kg [2, 16]: -4%; change in vivo at 2 mg/kg [2, 17]: -3%; change in vivo at 2 mg/kg [2, 18]: -3%; change in vivo at 2 mg/kg [2, 19]: -4%; Individual Animal Fate: Fate Status [3]: Scheduled Sacrifice
CC1=C(O)C(=O)C=C2C1=CC=C1[C@@]2(C)CC[C@@]2(C)[C@@H]3C[C@](C)(N(C)C)CC[C@]3(C)CC[C@]12C [ERX1177]	49.5 µM (≈ 22.3 µg/mL)	49.5 µM (≈ 22.3 µg/mL)	33.4 g	33.1 g	33.0 g	33.1 g	33.0 g	34.9 g	34.4 g	34.2 g	33.7 g	33.8 g	33.5 g	2%	0%	1%	1%	0%	0%	0%	Individual Body Weight ([2]; Phase Day DSNG 3): 31.8 g (2×) and 34.6 g (2×) and 38.2 g; Individual Body Weight ([2]; Phase Day DSNG 4): 31.2 g and 30.8 g and 34.8 g and 37.7 g and 34.2 g; Individual Body Weight ([2]; Phase Day DSNG 5): 31.3 g and 30.9 g and 34.2 g and 38.0 g and 34.4 g; Individual Body Weight ([2]; Phase Day DSNG 6): 31.4 g and 30.1 g and 33.7 g and 38.1 g and 34.4 g; Individual Body Weight ([2]; Phase Day DSNG 7): 31.4 g and 29.9 g and 33.7 g and 38.0 g and 34.1 g; Individual Body Weight ([2]; Phase Day DSNG 8): 31.0 g and 29.8 g and 33.4 g and 37.8 g and 33.7 g; change in vivo at 2 mg/kg [2, 16]: -2%; change in vivo at 2 mg/kg [2, 17]: -1%; change in vivo at 2 mg/kg [2, 18]: -1%; change in vivo at 2 mg/kg [2, 19]: -3%; Individual Body Weight, DSNG 1 ([2]; individual male DIO mouse, dosing phase day 1): 32.0 g and 32.1 g and 35.5 g and 40.1 g and 35.0 g; Individual Body Weight, DSNG 2 ([2]; individual male DIO mouse, dosing phase day 2): 32.2 g and 31.9 g and 34.5 g and 38.4 g and 34.9 g; Individual Body Weight, PRED 11 ([2]; individual male DIO mouse, group dosed 2 mg/kg, pre-dose phase day 11 (baseline)): 33.8 g and 33.3 g and 37.1 g and 41.9 g and 35.5 g; Individual Body Weight, PRED 12 ([2]; individual male DIO mouse, group dosed 2 mg/kg, pre-dose phase day 12 (baseline)): 32.5 g and 33.7 g and 36.7 g and 41.6 g and 36.2 g; Individual Body Weight, PRED 13 ([2]; individual male DIO mouse, group dosed 2 mg/kg, pre-dose phase day 13 (baseline)): 31.8 g and 32.6 g and 35.6 g and 42.2 g and 36.1 g; Individual Body Weight, PRED 14 ([2]; individual male DIO mouse, group dosed 2 mg/kg, pre-dose phase day 14 (baseline)): 31.7 g and 33.1 g and 36.4 g and 41.7 g and 36.2 g; Individual Animal Fate: Fate Status [3]: Scheduled Sacrifice
